How the values were obtained:
KasA = KasA (Mycobacterium tuberculosis, UniProt P9WQD9); assay type: biochemical
crystal structure = target: the molecule itself; assay: crystal structure

Chain of KasA (P9WQD9 whole entry): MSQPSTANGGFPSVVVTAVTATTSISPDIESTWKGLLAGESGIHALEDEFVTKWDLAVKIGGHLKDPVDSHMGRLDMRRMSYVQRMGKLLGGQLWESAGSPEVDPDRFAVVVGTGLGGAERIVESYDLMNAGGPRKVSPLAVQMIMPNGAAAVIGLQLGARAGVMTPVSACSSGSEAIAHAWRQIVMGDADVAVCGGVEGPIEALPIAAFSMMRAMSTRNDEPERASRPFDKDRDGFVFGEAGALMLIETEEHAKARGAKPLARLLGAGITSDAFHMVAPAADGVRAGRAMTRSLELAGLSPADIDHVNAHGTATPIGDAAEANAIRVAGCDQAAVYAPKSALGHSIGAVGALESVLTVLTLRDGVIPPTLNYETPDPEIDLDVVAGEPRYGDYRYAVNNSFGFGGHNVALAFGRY

Row | Molecule | Kd (KasA) | stoichiometry N (crystal structure)
1 | CCCCS(=O)(=O)N(C)c1ccc2cnn(C)c2c1 [compound 2, inactive analogue 2] | 4.5 µM | 
2 | β-ketoacyl synthase KasA (Mycobacterium tuberculosis) (enzyme, also called Rv2245) SQPSTANGGFPSVVVTAVTATTSISPDIESTWKGLLAGESGIHALEDEFVTKWDLAVKIGGHLKDPVDSHMGRLDMRRMSYVQRMGKLLGGQLWESAGSPEVDPDRFAVVVGTGLGGAERIVESYDLMNAGGPRKVSPLAVQMIMPNGAAAVIGLQLGARAGVMTPVSACSSGSEAIAHAWRQIVMGDADVAVCGGVEGPIEALPIAAFSMMRAMSTRNDEPERASRPFDKDRDGFVFGEAGALMLIETEEHAKARGAKPLARLLGAGITSDAFHMVAPAADGVRAGRAMTRSLELAGLSPADIDHVNAHGTATPIGDAAEANAIRVAGCDQAAVYAPKSALGHSIGAVGALESVLTVLTLRDGVIPPTLNYETPDPEIDLDVVAGEPRYGDYRYAVNNSFGFGGHNVALAFGRY |  | 2
